The results in this text go back to patent US11998577B2, “Methods for increasing growth of beneficial bacteria in the gastrointestinal tract” (ABBOTT LABORATORIES, priority 2017, dated 2024).

One assay relates to genus Bifidobacterium. Put plainly: Fecal fermentation, quantification of genus Bifidobacterium by real-time PCR. It is filed as cell-based. Conditions: faecal slurry of formula-fed baby, 37° C., pH 5.5, anaerobic; 2′-FL at both daily (DD) and per intake (DI) doses; p<0.05 vs blend (DD) and blend (DI). As to the method:
(§1) Example 2: A series of experiments were carried out to determine the effects of providing 2′-FL, lutein, and RRR-alpha-tocopherol on bacterial growth. Fecal fermentations were carried out by using 3 ml fermentations in 10 ml fermentor (24 multi-well plate; μ-24 Bioreactor, Applikon Biotechnology). Fresh faecal sample came from a formula (without prebiotic or probiotic)-fed baby. Stools were vacuum stored in refrigerated conditions until the fermentation. Fresh feces were weighed and dissolved in Mc Bain and MacFarlane medium (1:5) to hydrate them. Three milliliters of the homogenized mixture (faecal slurry) were inoculated in each fermenter. In each case, prebiotic (2′-FL), RRR-alpha-tocopherol (vitamin E) and lutein were added at different dosage (Table 4). […] Anaerobiosis, temperature (37° C.) and pH levels (pH 5.5) were maintained during the assay and monitored throughout the study. […] For quantification, previous extracted DNA was used. Real-time PCR was used to quantify genera Bifidobacterium and Lactobacillus, and B. longum and L. fermentum species. In the case of genus Bifidobacterium and B. longum, quantification was performed with primers described by Matsuki et al.1. Lactobacillus group was quantified with primers described by Byun et al.2. Lactobacillus fermentum was quantified with the aid of primers designed by Matsuda et al.3 Nucleotide sequences of primers are listed in Table 5. […]
Background: In qPCR the cycle at which signal appears reflects the starting amount.

The test system of another assay is B. longum. The experiment in a line: Fecal fermentation, quantification of B. longum species by real-time PCR. Particulars: faecal slurry fermentation; 2′-FL at both daily (DD) and per intake (DI) doses; p<0.05 vs product (DD) and blend (DI). It is filed as cell-based, Bifidobacterium longum. As to the method:
as §1

In the next assay the test system is L. fermentum. Put plainly: Fecal fermentation, quantification of L. fermentum species by real-time PCR. Particulars: faecal slurry fermentation; detection limit 1.00·103CFU/g slurry. It is filed as cell-based, Lactobacillus fermentum. As to the method: as §1

Regarding `C[C@@H]1O[C@@H](O[C@H]2[C@H](O[C@H]3[C@H](O)[C@@H](O)C(O)O[C@@H]3CO)O[C@H](CO)[C@H](O)[C@@H]2O)[C@@H](O)[C@H](O)[C@@H]1O` (stereo partly drawn) [2′-FL, 2′-fucosyllactose], in the assay on genus Bifidobacterium, the “bifidobacteria numbers (real-time PCR, FIG. 1)” value is on record as “significant higher bifidobacteria numbers”. Besides, the “B. longum numbers (real-time PCR, FIG. 2)” value in the assay on B. longum is given as “significant higher B. longum numbers”. In addition, the “L. fermentum detection (real-time PCR, FIG. 4)” value with L. fermentum is recorded as “reached detectable values”.
